Where two headings read alike, the source gives them in different places.
Tests used:
[1] = target: T1, FAP (Homo sapiens, UniProt Q12884); conditions: cited from earlier work; for tumor to kidney ratio: [^177Lu] agent
T1 sequence (Q12884 1-760): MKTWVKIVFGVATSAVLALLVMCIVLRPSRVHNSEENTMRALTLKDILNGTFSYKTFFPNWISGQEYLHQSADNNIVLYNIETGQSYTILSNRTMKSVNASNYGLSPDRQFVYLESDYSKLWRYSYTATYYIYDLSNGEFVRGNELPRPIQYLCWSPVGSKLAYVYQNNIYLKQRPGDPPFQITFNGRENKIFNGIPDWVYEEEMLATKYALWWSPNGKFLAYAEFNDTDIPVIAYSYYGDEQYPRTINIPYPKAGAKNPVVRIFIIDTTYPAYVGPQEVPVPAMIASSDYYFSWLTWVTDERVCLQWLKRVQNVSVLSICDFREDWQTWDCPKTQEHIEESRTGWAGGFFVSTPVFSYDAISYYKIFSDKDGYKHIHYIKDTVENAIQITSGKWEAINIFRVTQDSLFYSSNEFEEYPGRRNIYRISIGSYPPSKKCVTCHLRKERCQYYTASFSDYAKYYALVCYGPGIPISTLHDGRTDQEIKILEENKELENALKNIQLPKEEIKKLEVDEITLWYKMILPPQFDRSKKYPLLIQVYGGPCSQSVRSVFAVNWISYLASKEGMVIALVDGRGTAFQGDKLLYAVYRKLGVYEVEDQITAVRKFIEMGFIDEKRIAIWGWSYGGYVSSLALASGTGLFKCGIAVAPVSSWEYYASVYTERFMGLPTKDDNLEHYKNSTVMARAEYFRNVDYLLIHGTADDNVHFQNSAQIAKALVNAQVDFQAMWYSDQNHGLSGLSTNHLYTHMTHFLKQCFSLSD

[2] = Ib-3 uptake and dosimetry studies in rats; human estimated dosimetry (OLINDA/EXM 2.0); type: in vivo, Sprague-Dawley rats; conditions: estimates of human dosimetry from rat distribution data
Description: Uptake and dosimetry studies of (S)—N-(2-(2-cyanopyrrolidin-1-yl)-2-oxoethyl)-6-fluroquinoline-4-carboxamide (Ib-3) were performed in Sprague-Dawley rats (n=4, 2 males, 2 females) at 10, 20, 60, and 120 min. Rats were anesthetized with isoflurane, and (S)—N-(2-(2-cyanopyrrolidin-1-yl)-2-oxoethyl)-6-fluroquinoline-4-carboxamide (Ib-3) was administered via tail vein injections. At the appropriate time points, animals were euthanized, and their tissues procured for measuring radioactivity. Radioactivity was measured in a well counter and expressed as decay-corrected percentage injected dose per gram of tissue. Radiation dosimetry was calculated from the distribution data and was used to determine estimates of human dosimetry with OLINDA/EXM 2.0 software, or equivalent.
Human estimated dosimetry is given in Table 1, below, in mSv/MBq injected for each organ for males, females, and gender averaged: […]

Question: Which “tumor to background ratio relative to FAP-2286” value ([1]; [^68Ga] agent, early time points) does the source give for `CN(CCCN1CCN(C(=O)CN2CCN(CC(=O)O)CCN(CC(=O)O)CCN(CC(=O)O)CC2)CC1)c1ccc2nccc(C(=O)NCC(=O)N3CC(F)(F)C[C@H]3C#N)c2c1` [FAPI-46] here?
Answer: 3-5 times

Question: What about the “tumor to kidney ratio” value ([1]; 3 h) of the same compound?
Answer: 21.0

Question: What about the “tumor to kidney ratio” value ([1]; 24 hours) of the same compound?
Answer: 12.7

Question: And the “tumor to kidney ratio” value ([1]; 72 h)?
Answer: 8

Question: What does the source list for `N#C[C@@H]1CCCN1C(=O)CNC(=O)c1ccnc2ccc([18F])cc12` [Ib-3, (S)—N-(2-(2-cyanopyrrolidin-1-yl)-2-oxoethyl)-6-[18F]fluoroquinoline-4-carboxamide]?
Answer: Human estimated dosimetry: Adrenals ([2]; Females): 1.02E−02 mSv/MBq; Human estimated dosimetry: Brain ([2]; Females): 3.83E−03 mSv/MBq; Human estimated dosimetry: Breasts ([2]; Females): 1.23E−02 mSv/MBq; Human estimated dosimetry: Effective Dose ([2]; Females): 1.39E−02 mSv/MBq; Human estimated dosimetry: Esophagus ([2]; Females): 1.29E−02 mSv/MBq; Human estimated dosimetry: Eyes ([2]; Females): 6.79E−03 mSv/MBq; Human estimated dosimetry: Gallbladder Wall ([2]; Females): 1.64E−02 mSv/MBq; Human estimated dosimetry: Heart Wall ([2]; Females): 1.46E−02 mSv/MBq; Human estimated dosimetry: Kidneys ([2]; Females): 1.48E−02 mSv/MBq; Human estimated dosimetry: Left colon ([2]; Females): 2.18E−02 mSv/MBq; Human estimated dosimetry: Liver ([2]; Females): 9.11E−03 mSv/MBq; Human estimated dosimetry: Lungs ([2]; Females): 9.36E−03 mSv/MBq; Human estimated dosimetry: Osteogenic Cells ([2]; Females): 1.90E−02 mSv/MBq; Human estimated dosimetry: Ovaries ([2]; Females): 1.40E−02 mSv/MBq; Human estimated dosimetry: Pancreas ([2]; Females): 1.19E−02 mSv/MBq; Human estimated dosimetry: Rectum ([2]; Females): 1.94E−02 mSv/MBq; Human estimated dosimetry: Red Marrow ([2]; Females): 1.58E−02 mSv/MBq; Human estimated dosimetry: Right colon ([2]; Females): 1.99E−02 mSv/MBq; Human estimated dosimetry: Salivary Glands ([2]; Females): 1.34E−02 mSv/MBq; Human estimated dosimetry: Small Intestine ([2]; Females): 2.75E−02 mSv/MBq; Human estimated dosimetry: Spleen ([2]; Females): 1.00E−02 mSv/MBq; Human estimated dosimetry: Stomach Wall ([2]; Females): 1.69E−02 mSv/MBq; Human estimated dosimetry: Thymus ([2]; Females): 1.50E−02 mSv/MBq; Human estimated dosimetry: Thyroid ([2]; Females): 1.38E−02 mSv/MBq; Human estimated dosimetry: Total Body ([2]; Females): 1.49E−02 mSv/MBq; Human estimated dosimetry: Urinary Bladder Wall ([2]; Females): 3.42E−02 mSv/MBq; Human estimated dosimetry: Uterus ([2]; Females): 1.49E−02 mSv/MBq; Human estimated dosimetry: Adrenals ([2]; Gender Averaged): 9.65E−03 mSv/MBq; Human estimated dosimetry: Brain ([2]; Gender Averaged): 3.31E−03 mSv/MBq; Human estimated dosimetry: Breasts ([2]; Gender Averaged): 1.23E−02 mSv/MBq; Human estimated dosimetry: Effective Dose ([2]; Gender Averaged): 1.25E−02 mSv/MBq; Human estimated dosimetry: Esophagus ([2]; Gender Averaged): 1.21E−02 mSv/MBq; Human estimated dosimetry: Eyes ([2]; Gender Averaged): 6.09E−03 mSv/MBq; Human estimated dosimetry: Gallbladder Wall ([2]; Gender Averaged): 1.49E−02 mSv/MBq; Human estimated dosimetry: Heart Wall ([2]; Gender Averaged): 1.26E−02 mSv/MBq; Human estimated dosimetry: Kidneys ([2]; Gender Averaged): 1.52E−02 mSv/MBq; Human estimated dosimetry: Left colon ([2]; Gender Averaged): 1.99E−02 mSv/MBq; Human estimated dosimetry: Liver ([2]; Gender Averaged): 8.47E−03 mSv/MBq; Human estimated dosimetry: Lungs ([2]; Gender Averaged): 8.27E−03 mSv/MBq; Human estimated dosimetry: Osteogenic Cells ([2]; Gender Averaged): 1.84E−02 mSv/MBq; Human estimated dosimetry: Ovaries ([2]; Gender Averaged): 1.40E−02 mSv/MBq; Human estimated dosimetry: Pancreas ([2]; Gender Averaged): 1.10E−02 mSv/MBq; Human estimated dosimetry: Prostate ([2]; Gender Averaged): 1.66E−02 mSv/MBq; Human estimated dosimetry: Rectum ([2]; Gender Averaged): 1.78E−02 mSv/MBq; Human estimated dosimetry: Red Marrow ([2]; Gender Averaged): 1.43E−02 mSv/MBq; Human estimated dosimetry: Right colon ([2]; Gender Averaged): 1.82E−02 mSv/MBq; Human estimated dosimetry: Salivary Glands ([2]; Gender Averaged): 1.26E−02 mSv/MBq; Human estimated dosimetry: Small Intestine ([2]; Gender Averaged): 2.59E−02 mSv/MBq; Human estimated dosimetry: Spleen ([2]; Gender Averaged): 9.10E−03 mSv/MBq; Human estimated dosimetry: Stomach Wall ([2]; Gender Averaged): 1.55E−02 mSv/MBq; Human estimated dosimetry: Testes ([2]; Gender Averaged): 7.86E−03 mSv/MBq; Human estimated dosimetry: Thymus ([2]; Gender Averaged): 1.34E−02 mSv/MBq; Human estimated dosimetry: Thyroid ([2]; Gender Averaged): 1.29E−02 mSv/MBq; Human estimated dosimetry: Total Body ([2]; Gender Averaged): 1.37E−02 mSv/MBq; Human estimated dosimetry: Urinary Bladder Wall ([2]; Gender Averaged): 4.15E−02 mSv/MBq; Human estimated dosimetry: Uterus ([2]; Gender Averaged): 1.49E−02 mSv/MBq; Human estimated dosimetry: Adrenals ([2]; Males): 9.10E−03 mSv/MBq; Human estimated dosimetry: Brain ([2]; Males): 2.79E−03 mSv/MBq; Human estimated dosimetry: Effective Dose ([2]; Males): 1.10E−02 mSv/MBq; Human estimated dosimetry: Esophagus ([2]; Males): 1.13E−02 mSv/MBq; Human estimated dosimetry: Eyes ([2]; Males): 5.39E−03 mSv/MBq; Human estimated dosimetry: Gallbladder Wall ([2]; Males): 1.33E−02 mSv/MBq; Human estimated dosimetry: Heart Wall ([2]; Males): 1.06E−02 mSv/MBq; Human estimated dosimetry: Kidneys ([2]; Males): 1.56E−02 mSv/MBq; Human estimated dosimetry: Left colon ([2]; Males): 1.80E−02 mSv/MBq; Human estimated dosimetry: Liver ([2]; Males): 7.83E−03 mSv/MBq; Human estimated dosimetry: Lungs ([2]; Males): 7.17E−03 mSv/MBq; Human estimated dosimetry: Osteogenic Cells ([2]; Males): 1.78E−02 mSv/MBq; Human estimated dosimetry: Pancreas ([2]; Males): 1.00E−02 mSv/MBq; Human estimated dosimetry: Prostate ([2]; Males): 1.66E−02 mSv/MBq; Human estimated dosimetry: Rectum ([2]; Males): 1.62E−02 mSv/MBq; Human estimated dosimetry: Red Marrow ([2]; Males): 1.27E−02 mSv/MBq; Human estimated dosimetry: Right colon ([2]; Males): 1.65E−02 mSv/MBq; Human estimated dosimetry: Salivary Glands ([2]; Males): 1.17E−02 mSv/MBq; Human estimated dosimetry: Small Intestine ([2]; Males): 2.42E−02 mSv/MBq; Human estimated dosimetry: Spleen ([2]; Males): 8.20E−03 mSv/MBq; Human estimated dosimetry: Stomach Wall ([2]; Males): 1.40E−02 mSv/MBq; Human estimated dosimetry: Testes ([2]; Males): 7.86E−03 mSv/MBq; Human estimated dosimetry: Thymus ([2]; Males): 1.18E−02 mSv/MBq; Human estimated dosimetry: Thyroid ([2]; Males): 1.20E−02 mSv/MBq; Human estimated dosimetry: Total Body ([2]; Males): 1.25E−02 mSv/MBq; Human estimated dosimetry: Urinary Bladder Wall ([2]; Males): 4.87E−02 mSv/MBq

From patent publication US20260273110A1, “Radiolabeled Fibroblast Activation Protein Inhibitors and Methods of Making Same” (REGENTS OF THE UNIVERSITY OF MICHIGAN, priority 2023, published 2026)
